Tests used:
α2-adrenoceptor = α2-adrenoceptor radioligand binding assay ([3H]-clonidine, rat cerebral cortex)
Experimental: (§1) The α1-, α2-, and β1-adrenoceptor radioligand binding assay was carried out on the rat cerebral cortex. […] The brains were homogenized using ULTRA-TURRAX homogenizer in 10 mL of an ice-cold 50 mM Tris–HCl buffer (pH 7.6). Homogenates were centrifuged at 20,000× g for 20 min (0–4 °C). Next, the cell pellet was resuspended in the Tris–HCl buffer and centrifuged again. Radioligand binding assays were performed in plates (MultiScreen/Millipore). The final incubation mixture (volume 300 μL) consisted of 240 μL of the tissue suspension, 30 μL of radioligand solution, and 30 μL of the buffer containing 7–8 concentrations of the tested compound. […] The incubation was terminated by rapid filtration through Whatman GF/C filters using a vacuum manifold (Millipore). The filters were then washed twice with the assay buffer and placed in scintillation vials with a liquid scintillation cocktail. […] All the assays were made in duplicates and the inhibitory constants (Ki) were estimated.

D2 receptors = system: D2 receptors; design: method as in PMID 34451841; settings: previous studies; cited from earlier work
β1-adrenergic receptor = biological target: T1, β1-adrenergic receptor (Rattus norvegicus, UniProt P18090); experiment: β1-adrenoceptor radioligand binding assay ([3H]-CGP-12177, rat cerebral cortex)
T1 construct: from tissue; host or cells: rat cerebral cortex homogenate
Experimental: as §1

[1] = system: adrenaline-induced arrhythmia in rats; experiment: Prophylactic antiarrhythmic activity in adrenaline-induced arrhythmia; assay type: in vivo, rat
Experimental: The experiment was carried out according to the method described by Szekeres and Papp. Normotensive rats were anesthetized with thiopental (75 mg/kg ip). Adrenaline was administered at the dose of 20 µg/kg to induce heart rhythm disturbances. The studied compound was injected intraperitoneally 45 min before the arrhythmogen. The electrocardiogram (ECG) was recorded during the first 2 min and in the 5th, 10th, and 15th min after the adrenaline injection. The criterion of prophylactic antiarrhythmic activity was the lack of extrasystoles and inhibition of cardiac arrhythmia in comparison with the control group. The ED50 (a dose producing a 50% inhibition of ventricular contractions) was determined by computer log-probit analysis according to Litchfield and Wilcoxon.

α1-adrenergic receptors = experiment: Influence on blood vasopressor response to adrenaline, noradrenaline and methoxamine in rats; assay type: in vivo; settings: rat, 1.25 mg/kg iv, 5 min after administration
Experimental: To establish agonistic or antagonistic toward α1-adrenergic receptors, we studied the influence of the studied compound on the pressor response to adrenaline (2 µg/kg), noradrenaline (2 µg/kg), and methoxamine (150 µg/kg). Normotensive rats were anesthetized with thiopental (75 mg/kg ip). The right carotid artery was cannulated with a polyethylene tube filled with heparin solution to allow pressure measurements, using a Datamax apparatus (Columbus Instruments, Columbus, OH, USA). The experiment was carried out after 15 min of the stabilization period. The pressor response to adrenaline, noradrenaline, and methoxamine was measured before (control) and 5 min after the administration of the tested compound.

T1 sequence (P18090 whole entry): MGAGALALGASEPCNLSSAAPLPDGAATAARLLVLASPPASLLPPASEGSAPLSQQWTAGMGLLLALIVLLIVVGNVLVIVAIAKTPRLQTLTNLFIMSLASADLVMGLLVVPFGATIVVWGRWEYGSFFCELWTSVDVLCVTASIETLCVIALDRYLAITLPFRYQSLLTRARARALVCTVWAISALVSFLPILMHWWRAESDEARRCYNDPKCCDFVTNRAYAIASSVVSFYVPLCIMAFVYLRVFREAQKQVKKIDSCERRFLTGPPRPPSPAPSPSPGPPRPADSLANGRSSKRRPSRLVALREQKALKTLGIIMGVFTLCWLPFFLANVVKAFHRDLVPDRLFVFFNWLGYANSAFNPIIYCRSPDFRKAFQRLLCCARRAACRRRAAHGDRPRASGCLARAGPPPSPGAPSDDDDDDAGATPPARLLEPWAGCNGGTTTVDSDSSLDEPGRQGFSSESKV

In the case of `CCC(CN1CCN(c2ccccc2OC)CC1)NCCCOc1c(C)cccc1C.Cl.Cl` (stereo not shown) [HBK-10, N-(3-(2,6-dimethylphenoxy)propyl)-1-(4-(2-methoxyphenyl)piperazin-1-yl)butan-2-amine dihydrochloride], the “Adrenergic Receptors—pKi α2” value (α2-adrenoceptor; rat cortex tissue, [3H]-clonidine) is given as 5.72, the “affinity towards α2-adrenoceptor lower compared with the α1 receptor” value (α2-adrenoceptor; rat cortex, α1 vs α2) is given as “over 600 fold” and the “properties at D2 receptors” value (D2 receptors) is given as “antagonistic properties”. For the same compound, the Ki (β1-adrenergic receptor; rat cortex tissue, [3H]-CGP-12177, read-out: Adrenergic Receptors—pKi β1 (converted)) was 3.02 µM, the “affinity towards β1-adrenoceptor lower compared with the α1 receptor” value (β1-adrenergic receptor; rat cortex, α1 vs β1) was > 1000 fold and the “ED50 lower than for carvedilol” value ([1]; HBK-10 ip vs carvedilol iv) was ~3 fold. The “Extrasystoles (%)” value ([1]; rat, 0.0625 mg/kg ip 45 min before adrenaline 20 μg/kg iv) was 83.3%, the “Extrasystoles (%)” value ([1]; rat, 0.125 mg/kg ip 45 min before adrenaline 20 μg/kg iv) was 50% and the “Extrasystoles (%)” value ([1]; rat, 0.25 mg/kg ip 45 min before adrenaline 20 μg/kg iv) was 16.7%. For the same compound, the ED50 ([1]; rat, ip 45 min before adrenaline 20 μg/kg iv, read-out: ED50 (extrasystoles caused by adrenaline)) was 0.125 mg/kg, the “attenuation of adrenaline pressor response” value (α1-adrenergic receptors; adrenaline 2 μg/kg) was 77.2% and the “attenuation of methoxamine pressor response” value (α1-adrenergic receptors; methoxamine 150 μg/kg) was 77.4%. The “attenuation of noradrenaline pressor response” value (α1-adrenergic receptors; noradrenaline 2 μg/kg) was 32.5%.
